From the supplement of paper PMC13380429

What was measured:
Settings in all cases: 72 h
Vero E6 [1] = test: relative viability EC50 (midpoint between 100% and the lowest measured viability); higher = less toxic
Caco-2 [2] = test: as above
Calu-3 [3] = test: as above
U2OS [4] = test: as above
HepG2 [5] = test: as above
Vero E6 [6] = test: cell viability relative to DMSO; higher = less toxic
Caco-2 [7] = test: as above
Calu-3 [8] = test: as above
U2OS [9] = test: as above
HepG2 [10] = test: as above
Vero E6 [11] = test: drug sensitivity score (DSS) for viability; higher = more toxic; extreme values may be limits of the assay
Caco-2 [12] = test: as above
Calu-3 [13] = test: as above
U2OS [14] = test: as above
HepG2 [15] = test: as above

Row | Compound | relative viability EC50 (Vero E6 [1]) [µM] | relative viability EC50 (Caco-2 [2]) [µM] | relative viability EC50 (Calu-3 [3]) [µM] | relative viability EC50 (U2OS [4]) [µM] | relative viability EC50 (HepG2 [5]) [µM] | cell viability (Vero E6 [6]; 1 nM) [%] | cell viability (Vero E6 [6]; 10 nM) [%] | cell viability (Vero E6 [6]; 100 nM) [%] | cell viability (Vero E6 [6]; 1000 nM) [%] | cell viability (Vero E6 [6]; 10000 nM) [%] | cell viability (Caco-2 [7]; 1 nM) [%] | cell viability (Caco-2 [7]; 10 nM) [%] | cell viability (Caco-2 [7]; 100 nM) [%] | cell viability (Caco-2 [7]; 1000 nM) [%] | cell viability (Caco-2 [7]; 10000 nM) [%] | cell viability (Calu-3 [8]; 1 nM) [%] | cell viability (Calu-3 [8]; 10 nM) [%] | cell viability (Calu-3 [8]; 100 nM) [%] | cell viability (Calu-3 [8]; 1000 nM) [%] | cell viability (Calu-3 [8]; 10000 nM) [%] | cell viability (U2OS [9]; 1 nM) [%] | cell viability (U2OS [9]; 10 nM) [%] | cell viability (U2OS [9]; 100 nM) [%] | cell viability (U2OS [9]; 1000 nM) [%] | cell viability (U2OS [9]; 10000 nM) [%] | cell viability (HepG2 [10]; 1 nM) [%] | cell viability (HepG2 [10]; 10 nM) [%] | cell viability (HepG2 [10]; 100 nM) [%] | cell viability (HepG2 [10]; 1000 nM) [%] | cell viability (HepG2 [10]; 10000 nM) [%] | drug sensitivity score (Vero E6 [11]) | drug sensitivity score (Caco-2 [12]) | drug sensitivity score (Calu-3 [13]) | drug sensitivity score (U2OS [14]) | drug sensitivity score (HepG2 [15])
1 | Cc1ccc2c(c1)[C@H]1CN(C)CC[C@H]1N2 [stobadine] | > 10 | > 10 | > 10 | > 10 | > 10 | 101 | 102 | 99.7 | 103 | 94.1 | 96.5 | 91.9 | 92.2 | 96 | 95.8 | 97.2 | 116 | 93 | 94.5 | 102 | 100 | 98.7 | 101 | 99.6 | 101 | 107 | 110 | 97.2 | 97.4 | 95.8 | 0 | 0 | 0 | 0 | 0
2 | C=CC1=C(C(=O)O)N2C(=O)[C@@H](NC(=O)/C(=N\O)c3csc(N)n3)[C@H]2SC1 [cefdinir] | > 10 | > 10 | > 10 | > 10 | > 10 | 104 | 100 | 99.8 | 97.7 | 99.9 | 100 | 98.9 | 90.3 | 101 | 99.2 | 101 | 91.8 | 92.3 | 102 | 101 | 94 | 104 | 94.8 | 102 | 100 | 110 | 92.9 | 101 | 93.1 | 97.5 | 0 | 0 | 0 | 0 | 0
3 | CO/N=C(\C(=O)N[C@@H]1C(=O)N2C(C(=O)O)=CCS[C@H]12)c1csc(N)n1 [ceftizoxim] | > 10 | > 10 | > 10 | > 10 | > 10 | 102 | 99.2 | 95.2 | 95.6 | 105 | 89.5 | 100 | 92.1 | 103 | 95.7 | 97.2 | 93.6 | 103 | 105 | 93.4 | 97.7 | 99.2 | 94.5 | 98.8 | 98.7 | 97.5 | 96.1 | 107 | 103 | 103 | 0 | 0 | 0 | 0 | 0
4 | Cc1ccc(/C=C2/C(=O)C3(C)CCC2C3(C)C)cc1 (stereo not given) [3-(4-methylbenzylidene)camphor] | > 10 | > 10 | > 10 | > 10 | > 10 | 101 | 101 | 96.9 | 99.9 | 96.3 | 92.9 | 100 | 90 | 95.8 | 95.9 | 102 | 97.2 | 88.1 | 92.1 | 93.8 | 101 | 104 | 96.4 | 99.1 | 100 | 94.1 | 96 | 94.3 | 88.9 | 103 | 0 | 0 | 1.2 | 0 | 0
5 | O=[N+]([O-])c1ccc2nc(COCc3nc4ccc([N+](=O)[O-])cc4[nH]3)[nH]c2c1 [VU591] | > 10 | > 10 | > 10 | > 10 | > 10 | 93.4 | 99.1 | 92.2 | 94.6 | 114 | 95.8 | 92.2 | 103 | 84.9 | 92.8 | 94.6 | 95.3 | 101 | 100 | 88.7 | 93.2 | 93.7 | 99.4 | 99 | 97.3 | 94.1 | 95.6 | 96.3 | 96.2 | 102 | 0 | 0 | 0 | 0 | 0
6 | C=C1CC[C@H](O)C/C1=C/C=C1\CCC[C@]2(C)[C@@H]([C@H](C)CCCC(C)C)CC[C@@H]12 [cholecalciferol] | > 10 | > 10 | > 10 | > 10 | > 10 | 92.1 | 85.5 | 102 | 93.8 | 120 | 95.6 | 88.2 | 101 | 103 | 144 | 100 | 102 | 96.5 | 108 | 95.5 | 94.6 | 103 | 96.4 | 100 | 99.4 | 90.3 | 82.4 | 92.8 | 93.4 | 84.6 | 0 | 0 | 0 | 0 | 0
7 | C[C@@H](c1ncncc1F)[C@](O)(Cn1cncn1)c1ccc(F)cc1F [voriconazole] | > 10 | > 10 | > 10 | > 10 | > 10 | 98.8 | 101 | 97.8 | 108 | 105 | 101 | 92.5 | 102 | 85.6 | 110 | 92.4 | 97.5 | 92.4 | 99.8 | 110 | 103 | 101 | 97.6 | 97.4 | 109 | 100 | 106 | 86.9 | 107 | 122 | 0 | 0 | 0 | 0 | 0
